These results are taken from US12157730B2, “Heteroaryl derivative, method for producing same, and pharmaceutical composition comprising same as effective component” (VORONOI INC., priority 2019, dated 2024).

This assay addresses T1, Ba/F3 cell EGFR Exon20 ins NPH (Homo sapiens, UniProt P00533, INS773NPH).
T1 construct: expressed in transfected cells; host or cells: Ba/F3
The assay is described as follows: Ba/F3 cell proliferation suppression, EGFR Exon20 ins NPH. The assay is classed as cell-based. To be noted: GI50 class; Ba/F3 cell line with NPH inserted at Exon20 of EGFR; 72 hours. The method, boiled down:
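After 72 h compound exposure (twelve 3-fold steps, 0.3 nM–50 um final), live cells were measured by CellTiter-Glo luminescence and growth expressed as % of control to derive GI50. Cells were seeded at 3000–5000 per well a day earlier; Ba/F3 medium contained IL-3; three repeats.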
Regarding `C=CC(=O)Nc1cc(Nc2cc(N3OCC[C@@H]3c3ccc(F)c(F)c3)ncn2)c(OC)cc1N1CC[C@@H](N(C)C)C1` [compound 577, N-(5-((6-((R)-3-(3,4-difluorophenyl)isoxazolidine-2-yl)pyrimidine-4-yl)amino)-2-((R)-3-(dimethylamino)pyrolidine-1-yl)-4-methoxyphenyl) acrylamide], the “Ba/F3 (NPH) Activity” value was “A (GI50 < 50 nM)”. As for `C=CC(=O)Nc1cc(Nc2cc(N3OCC[C@@H]3c3cccc(F)c3F)ncn2)c(OC)cc1N1CCC(N2CCN(C)CC2)CC1` [compound 921, N-(5-((6-((R)-3-(2,3-difluorophenyl)isoxazolidine-2-yl)pyrimidine-4-yl)amino)-4-methoxy-2-(4-(4-methylpiperazine-1-yl)piperidine-1-yl)phenyl) acrylamide], the “Ba/F3 (NPH) Activity” value is “A (GI50 < 50 nM)”. Then `COc1cc(N2CCOCC2)c(NC(=O)/C=C/CN(C)C)cc1Nc1cc(N2OCC[C@@H]2c2cc(F)cc(F)c2)ncn1` [compound 397, N-(5-((6-((R)-3-(3,5-difluorophenyl)isoxazolidine-2-yl)pyrimidine-4-yl)amino)-4-methoxy-2-morpholinophenyl)-(E)-4-(dimethylamino)but-2-enamide], with “A (GI50 < 50 nM)”; and `C=CC(=O)Nc1cc(Nc2cc(N3OCC[C@H]3c3c(F)cccc3F)ncn2)c(OC)cc1N1CCC(N2C[C@@H](C)O[C@@H](C)C2)CC1` [compound 309, N-(5-((6-((S)-3-(2,6-difluorophenyl)isoxazolidine-2-yl)pyrimidine-4-yl)amino)-2-(4-((2S,6R)-2,6-dimethylmorpholino)piperidine-1-yl)-4-methoxyphenyl) acrylamide], with “C (500 nM ≤ GI50 < 5000 nM)”; and `C=CC(=O)Nc1cc(Nc2cc(N3OCC[C@@H]3c3ccc(F)cc3F)ncn2)c(OC)cc1N1CCC(N2CCC(N(C)C)CC2)CC1` [compound 478, N-(5-((6-((R)-3-(2,4-difluorophenyl)isoxazolidine-2-yl)pyrimidine-4-yl)amino)-2-(4-(dimethylamino)-[1,4'-bipiperidine]-1'-yl)-4-methoxyphenyl) acrylamide], with “A (GI50 < 50 nM)”. Then `C=CC(=O)Nc1cc(Nc2cc(N3OCC[C@@H]3c3ccc(F)c(Cl)c3F)ncn2)c(OC)cc1N1CCN(C)[C@@H](C)C1` [compound 665, N-(5-((6-((R)-3-(3-chloro-2,4-difluorophenyl)isoxazolidine-2-yl)pyrimidine-4-yl)amino)-2-((S)-3,4-dimethylpiperazine-1-yl)-4-methoxyphenyl) acrylamide], with “B (50 nM ≤ GI50 < 500 nM)”; and `C=CC(=O)Nc1cc(Nc2cc(N3OCC[C@@H]3c3cccc(C(F)(F)F)c3)ncn2)c(OC)cc1N1CCC(N2CCN(C3CC3)[C@H](C)C2)CC1` [compound 942, N-(2-(4-((R)-4-cyclopropyl-3-methylpiperazine-1-yl)piperidine-1-yl)-4-methoxy-5-((6-((R)-3-(3-(trifluoromethyl)phenyl)isoxazolidine-2-yl)pyrimidine-4-yl)amino)phenyl) acrylamide], with “A (GI50 < 50 nM)”; and `C=CC(=O)Nc1cc(Nc2cc(N3OCC[C@@H]3c3cccc(OC)c3)ncn2)c(OC)cc1N1CCC(N2CCN(C)CC2)CC1` [Example 40, N-(4-methoxy-5-((6-((R)-3-(3-methoxyphenyl)isoxazolidine-2-yl)pyrimidine-4-yl)amino)-2-(4-(4-methylpiperazine-1-yl)piperidine-1-yl)phenyl) acrylamide], with “B (50 nM ≤ GI50 < 500 nM)”.

With `C=CC(=O)Nc1cc(Nc2cc(N3OCC[C@@H]3c3ccc(Cl)c(Cl)c3F)ncn2)c(OC)cc1N1CCC(N2C[C@@H](C)O[C@@H](C)C2)CC1` [compound 773, N-(5-((6-((R)-3-(3,4-dichloro-2-fluorophenyl)isoxazolidine-2-yl)pyrimidine-4-yl)amino)-2-(4-((2S,6R)-2,6-dimethylmorpholino)piperidine-1-yl)-4-methoxyphenyl) acrylamide], the “Ba/F3 (NPH) Activity” value is on record as “B (50 nM ≤ GI50 < 500 nM)”. For the molecule `C=CC(=O)Nc1cc(Nc2cc(N3OCC[C@@H]3c3cc(F)cc(Cl)c3)ncn2)c(OC)cc1N1CCC(N2CCO[C@H](C)C2)CC1` [compound 596, N-(5-((6-((R)-3-(3-chloro-5-fluorophenyl)isoxazolidine-2-yl)pyrimidine-4-yl)amino)-4-methoxy-2-(4-((R)-2-methylmorpholino)piperidine-1-yl)phenyl)acrylamide], the “Ba/F3 (NPH) Activity” value is on record as “A (GI50 < 50 nM)”.

For `C=CC(=O)Nc1cc(Nc2cc(N3OCC[C@@H]3Cc3cccc(F)c3C)ncn2)c(OC)cc1N1CCC(N2C[C@@H]3C[C@H]2CO3)CC1` [compound 1040, N-(2-(4-((1S,4S)-2-oxa-5-azabicyclo [2.2.1]heptane-5-yl)piperidine-1-yl)-5-((6-((S)-3-(3-fluoro-2-methylbenzyl)isoxazolidine-2-yl)pyrimidine-4-yl)amino)-4-methoxyphenyl) acrylamide], the “Ba/F3 (NPH) Activity” value is reported as “A (GI50 < 50 nM)”. The result for `C=CC(=O)Nc1cc(Nc2cc(N3OCC[C@@H]3c3cccc(F)c3)ncn2)c(OC)cc1-n1ccnc1C` [compound 861, N-(5-((6-((R)-3-(3-fluorophenyl)isoxazolidine-2-yl)pyrimidine-4-yl)amino)-4-methoxy-2-(2-methyl-1H-imidazole-1-yl)phenyl)acrylamide] reads “B (50 nM ≤ GI50 < 500 nM)”; that for `C=CC(=O)Nc1cc(Nc2cc(N3OCC[C@@H]3Cc3cccc(Cl)c3Cl)ncn2)c(OC)cc1N(C)CCN(C)C` [compound 982, N-(5-((6-((S)-3-(2,3-dichlorobenzyl)isoxazolidine-2-yl)pyrimidine-4-yl)amino)-2-((2-(dimethylamino)ethyl)(methyl)amino)-4-methoxyphenyl) acrylamide], “A (GI50 < 50 nM)”. The result for `C=CC(=O)Nc1cc(Nc2cc(N3OCC[C@@H]3c3ccc(F)c(F)c3)ncn2)c(OC)cc1N1CCC(N2CCN(C(C)C)CC2)CC1` [compound 501, N-(5-((6-((R)-3-(3,4-difluorophenyl)isoxazolidine-2-yl)pyrimidine-4-yl)amino)-2-(4-(4-isopropylpiperazine-1-yl)piperidine-1-yl)-4-methoxyphenyl) acrylamide] reads “A (GI50 < 50 nM)”; that for `C=CC(=O)Nc1cc(Nc2cc(N3OCC[C@@H]3c3ccc(F)cc3F)ncn2)c(OC)cc1N1CCC(N2CCN(C3CC3)CC2)CC1` [Example 139, N-(2-(4-(4-cyclopropylpiperazine-1-yl)piperidine-1-yl)-5-((6-((R)-3-(2,4-difluorophenyl)isoxazolidine-2-yl)pyrimidine-4-yl)amino)-4-methoxyphenyl) acrylamide], “A (GI50 < 50 nM)”; that for `C=CC(=O)Nc1cc(Nc2cc(N3OCC[C@@H]3c3cccc(Cl)c3F)ncn2)c(OC)cc1N1CCC(N2CC[C@@H](N(C)C)C2)CC1` [compound 914, N-(5-((6-((R)-3-(3-chloro-2-fluorophenyl)isoxazolidine-2-yl)pyrimidine-4-yl)amino)-2-(4-((R)-3-(dimethylamino)pyrolidine-1-yl)piperidine-1-yl)-4-methoxyphenyl) acrylamide], “A (GI50 < 50 nM)”. Turning to `C=CC(=O)Nc1cc(Nc2cc(N3OCC[C@@H]3c3cccc(C#N)c3)ncn2)c(OC)cc1N1CCN(C2COC2)CC1` [compound 391, N-(5-((6-((R)-3-(3-cyanophenyl)isoxazolidine-2-yl)pyrimidine-4-yl)amino)-4-methoxy-2-(4-(oxetane-3-yl)piperazine-1-yl)phenyl) acrylamide], the “Ba/F3 (NPH) Activity” value is “B (50 nM ≤ GI50 < 500 nM)”. As to `C=CC(=O)Nc1cc(Nc2cc(N3OCC[C@@H]3c3cccc(Cl)c3C)ncn2)c(OC)cc1N1CCC(N2CCC(F)(F)CC2)CC1` [compound 581, N-(5-((6-((R)-3-(3-chloro-2-methylphenyl)isoxazolidine-2-yl)pyrimidine-4-yl)amino)-2-(4,4-difluoro-[1,4'-bipiperidine]-1'-yl)-4-methoxyphenyl) acrylamide], the “Ba/F3 (NPH) Activity” value was “A (GI50 < 50 nM)”. The result for `C=CC(=O)Nc1cc(Nc2cc(N3OCC[C@@H]3c3ccc(F)c(F)c3F)ncn2)c(OC)cc1N1CCC(N2C[C@@H](C)O[C@@H](C)C2)CC1` [compound 576, N-(2-(4-((2S,6R)-2,6-dimethylmorpholino)piperidine-1-yl)-4-methoxy-5-((6-((R)-3-(2,3,4-trifluorophenyl)isoxazolidine-2-yl)pyrimidine-4-yl)amino)phenyl)acrylamide] reads “A (GI50 < 50 nM)”; that for `C=CC(=O)Nc1cc(Nc2cc(N3OCC[C@@H]3c3ccc(F)c(F)c3)ncn2)c(OC)cc1N1CCN(C)CC1` [compound 458, N-(5-((6-((R)-3-(3,4-difluorophenyl)isoxazolidine-2-yl)pyrimidine-4-yl)amino)-4-methoxy-2-(4-methylpiperazine-1-yl)phenyl)acrylamide], “A (GI50 < 50 nM)”; that for `C=CC(=O)Nc1cc(Nc2cc(N3OCC[C@@H]3c3ccc(Cl)c(F)c3)ncn2)c(OC)cc1N1CCC(N2C[C@@H]3C[C@H]2CO3)CC1` [compound 802, N-(2-(4-((1S,4S)-2-oxa-5-azabicyclo [2.2.1]heptane-5-yl)piperidine-1-yl)-5-((6-((R)-3-(4-chloro-3-fluorophenyl)isoxazolidine-2-yl)pyrimidine-4-yl)amino)-4-methoxyphenyl) acrylamide], “A (GI50 < 50 nM)”. As to `C=CC(=O)Nc1cc(Nc2cc(N3OCC[C@@H]3c3cccc(Cl)c3F)ncn2)c(OC)cc1N(C)CCN(C)C` [compound 746, N-(5-((6-((R)-3-(3-chloro-2-fluorophenyl)isoxazolidine-2-yl)pyrimidine-4-yl)amino)-2-((2-(dimethylamino)ethyl)(methyl)amino)-4-methoxyphenyl) acrylamide], the “Ba/F3 (NPH) Activity” value is “A (GI50 < 50 nM)”.
